The subject of this assay is E. coli WT-GFP vs G2058-humanized RFP, fluorescence, 24 h. In words: E. coli strain growth, wild-type against G2058 humanized RFP mutant – G2058 mutant RFP vs wild-type GFP, cherry-pick, two tests, dose response (AID 1035470).
[1] abbreviates: E. coli WT-GFP vs G2058-humanized RFP mixed culture, total growth OD600, 24 h.
Where [2] appears, read: measured here: G2058 humanized mutant RFP growth.

Molecules are shown by their SMILES. Inconclusive results are not listed. Active and inactive are the calls of the source.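 How the source made its calls: active means compound lowering the normal-ribosome reporter at least twice as much as the humanized-ribosome reporter, growth loss under a set limit; inconclusive means no clear call, values can overlap the other calls; inactive means the rest.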

With `Cc1ccc(S(=O)(=O)N2CC(=O)Nc3ccccc32)cc1C`, the AC50 was > 100 µM (inactive). The same compound came in with an AC50 under setting [1] of more than 100 µM.

As to `COc1ccc(OC)c(-c2nnc3n2N=C(c2ccc(OC)c(OC4CCOC4)c2)CS3)c1` (configuration not stated), the AC50 is > 100 µM (inactive).

Consider `COc1ccc(C#Cc2ccc([C@H]3[C@@H](CO)N4CCCCN(C(=O)Nc5cccc(F)c5)C[C@H]34)cc2)cc1`, for which the AC50 under setting [1] was more than 100 µM.

For `CN(CCOc1ccccc1)C(=O)c1ccc(OC2CCN(C(=O)C3CC3)CC2)cc1`, the AC50 is > 100 µM (inactive). The compound further returned an AC50 under setting [1] of more than 100 µM.

`CCOc1ccc2nc(N(CCN(C)C)C(=O)c3ccc4ccccc4c3)sc2c1`: the AC50 is > 100 µM (inactive).

Regarding `Nc1nc(Nc2ccccc2F)nc(N2CCOCC2)c1[N+](=O)[O-]`, the AC50 was > 100 µM (inactive).

For the compound `COC(=O)C1CCN(C(=O)c2ccc(OC)c(S(=O)(=O)N3CCCc4ccccc43)c2)CC1`, the AC50 is > 100 µM (inactive).

Regarding `CC(=O)OC(COc1cccc(C)c1)Cn1cnc2ccccc21` (configuration not stated), the AC50 is > 100 µM (inactive). In addition, the AC50 under setting [1] was more than 100 µM.

Consider `COc1cccc(-c2ccc(SCc3ccccn3)nn2)c1`, for which the AC50 was > 100 µM (inactive).

Consider `O=C(Nc1cccc(Cl)c1)N1C[C@@H]2[C@H](c3ccccc31)[C@@H](CO)N2C(=O)c1cccnc1`, for which, under setting [2], the AC50 was more than 100 µM.

For `CCCc1nc2oc3c(NCCCN(C)C)ncnc3c2c2c1CCCC2`, the AC50 is > 100 µM (inactive). This compound had an AC50 under setting [1] of more than 100 µM.

Take `NC(=O)c1ccsc1NC(=O)COC(=O)Cc1ccc(F)cc1`: the AC50 is > 100 µM (inactive). The same compound yielded an AC50 under setting [2] of more than 100 µM.

`CCOc1cc(/C=C(\CC(=O)O)c2nc3ccccc3s2)ccc1OC`: the AC50 was > 100 µM (inactive).

With `Cc1nc(N2CCC(C)CC2)c(C#N)c(C)c1[N+](=O)[O-]`, the AC50 is > 100 µM (inactive).

As to `COc1cccc(S(=O)(=O)N2CCCCN3[C@H](CO)[C@H](c4ccc(C#CC(C)C)cc4)[C@@H]3C2)c1`, the AC50 was > 100 µM (inactive). This compound came in with an AC50 under setting [1] of more than 100 µM.

With `Cc1nn(-c2cccc(Cl)c2)nc1C(=O)O`, the AC50 was > 100 µM (inactive). Also, the AC50 under setting [1] was more than 100 µM.

`Cc1cccc(C(=O)NCC(=O)NCCSc2ccc(Br)cc2)c1`: the AC50 was > 100 µM (inactive). In addition, under setting [2], the AC50 came to 7.48 µM.

As to `CSc1ccccc1OCc1cc(C(=O)N[C@H]2CCCCNC2=O)no1`, the AC50 is > 100 µM (inactive). This compound gave an AC50 under setting [1] of more than 100 µM.

As to `CC1Cc2cc(-c3csc(NC(=O)Cc4ccccc4)n3)ccc2N1S(C)(=O)=O` (configuration not stated), the AC50 is > 100 µM (inactive). The compound also registered an AC50 under setting [1] of more than 100 µM.

The compound `COc1ccc(-c2noc(=O)n2Cc2ccccc2Cl)cc1` yielded an AC50 under setting [1] of more than 100 µM.

On to `O=S(=O)(c1ccc(Cl)cc1)N1CCN=C1SCc1cccc(Cl)c1`, for which the AC50 was > 100 µM (inactive).

On to `COC(=O)c1ccc(CN2CCCC(CO)(Cc3ccccc3F)C2)cc1` (configuration not stated), for which the AC50 was > 100 µM (inactive). This compound had an AC50 under setting [1] of more than 100 µM.

Regarding `Cc1c(-c2cccc(Cl)c2)nc2ccccc2c1C(=O)N1CCC2(CC1)OCCO2`, the AC50 is > 100 µM (inactive).

In the case of `CCOC(=O)c1c(CS(=O)(=O)c2ccccc2)n(C)c2cc(Br)c(O)cc12`, the AC50 was > 100 µM (inactive).

On to `O=C(Nc1ccc2nc(-c3cccnc3)[nH]c2c1)c1ccco1`, for which the AC50 is > 100 µM (inactive). In addition, the AC50 under setting [2] is more than 100 µM.

Turning to `O=c1c2ccccc2nc(SCc2ccccc2)n1CC1CCCO1` (configuration not stated), the AC50 under setting [1] is more than 100 µM.

Consider `COc1ccc(OC)c(S(=O)(=O)Nc2cccc3ccc(O)cc23)c1`, for which the AC50 was > 100 µM (inactive).

As for `CC(=O)Nc1ccc(OCc2nnc(-c3ccccc3)o2)cc1`, the AC50 was > 100 µM (inactive). This compound also registered an AC50 under setting [1] of more than 100 µM.

Compound `Cc1cccc(-c2ccc([C@@H]3[C@@H](CO)N4CCCCN(S(=O)(=O)c5ccccc5C)C[C@H]34)cc2)c1` came in with an AC50 under setting [1] of more than 100 µM.

As for `OCCN(Cc1ccccc1)Cc1ccc(F)c(F)c1`, the AC50 is > 100 µM (inactive).

Consider `COC(=O)c1ccc2nc(-c3ccco3)c(Cc3ccc(C)cc3)n2c1`, for which the AC50 under setting [1] was more than 100 µM.

On to `NC(=O)c1cc(NC(=O)c2cc(Br)c(Br)s2)cc(C(N)=O)c1`, for which the AC50 was > 100 µM (inactive).

In the case of `O=C(NCCc1ccccn1)c1cccc(S(=O)(=O)N2CCc3ccccc32)c1`, the AC50 is > 100 µM (inactive). The compound also had an AC50 under setting [1] of more than 100 µM.

On to `CN(C)S(=O)(=O)c1ccc(Cl)c(C(=O)OCC(=O)NC(=O)c2cccn2C)c1`, for which the AC50 is > 100 µM (inactive).

Take `O=C1c2ccccc2C(c2nnnn2C2CCCCC2)N1CCc1ccc(O)cc1` (configuration not stated): the AC50 is > 100 µM (inactive).

As for `O=C(c1ccccc1)C1Oc2ccccc2C2CC(c3cccs3)=NN12` (configuration not stated), the AC50 was > 100 µM (inactive).

The compound `O=S1(=O)N[C@H](Cc2ccccc2)COc2cc(N3CCSCC3)ccc21` showed an AC50 under setting [1] of more than 100 µM.

`Cc1noc(C)c1NC(=O)Nc1ccc2c(c1)C(=O)N([C@@H](C)CO)C[C@@H](C)[C@H](CN(C)C(=O)Nc1ccc3c(c1)OCO3)OCCCC[C@H](C)O2`: the AC50 under setting [1] is more than 100 µM.

Consider `Cc1ccc(C(=O)Nc2ccc3ncccc3c2)cc1`, for which the AC50 is > 100 µM (inactive).

In turn, `Fc1ccc(-c2nc3ccc(Cl)cn3c2Cc2cccc(Cl)c2)cc1` returned an AC50 under setting [1] of more than 100 µM.

Regarding `O=C(NCc1ccccc1Cl)[C@H]1CCCN1C(=O)[C@H]1CCCN1C(=O)c1cccc2ccccc12`, the AC50 is > 100 µM (inactive). Under setting [1], this compound gave an AC50 of more than 100 µM.

Take `Cc1cc2c(sc3ccccc32)c(C)n1`: the AC50 was > 100 µM (inactive). This compound also yielded an AC50 under setting [1] of more than 100 µM. The compound further registered an AC50 under setting [2] of 48.8 µM.

Turning to `Cc1nnc2sc(SCC(=O)Nc3ccc(Br)cc3)nn2c1=O`, the AC50 is > 100 µM (inactive). The AC50 under setting [2] is more than 100 µM.

Turning to `O=[N+]([O-])c1ccccc1Oc1ccc(Cl)c2cccnc12`, the AC50 was > 100 µM (inactive).

`COc1ccc(NC(=O)CSc2n[nH]c(-c3ccncc3)n2)c([N+](=O)[O-])c1` had an AC50 under setting [1] of more than 100 µM.

Compound `N#Cc1ccc(-c2ccc(C3[C@H]4CNC[C@@H]3N4S(=O)(=O)c3ccc(-c4ccccc4)cc3)cc2)cc1` (some centres not stated) came in with an AC50 under setting [1] of more than 100 µM.

On to `COc1ccc(-c2noc(CCc3ccccc3)n2)cc1`, for which the AC50 is > 100 µM (inactive).

For the compound `COC(=O)c1sc(C(C)(C)C)cc1CS(=O)(=O)c1ccc(Cl)cc1`, the AC50 was > 100 µM (inactive). The AC50 under setting [1] was more than 100 µM.

Under setting [2], `Cc1ccccc1-n1nnnc1SCCCC(=O)c1ccc(F)cc1` had an AC50 of more than 100 µM.

For the compound `Cc1ccccc1OCc1nc2ccccc2n1C`, the AC50 was > 100 µM (inactive).

With `CC(C)(CC(=O)O)CC(=O)NCc1c(Cl)cccc1Sc1ccc(Cl)cc1`, the AC50 was > 100 µM (inactive).

Turning to `COc1ccc(C2CC(=O)Oc3cc(C)cc(C)c32)cc1` (configuration not stated), the AC50 is > 100 µM (inactive).

`CC1CCCC(NC(=O)COC(=O)Cc2c[nH]c3ccccc23)C1C` (configuration not stated): the AC50 is > 100 µM (inactive). The compound further displayed a half-maximal activity concentration (AC50) under setting [1] of more than 100 µM.

For the compound `COc1ccc(NC(=O)c2ccc(-c3ccc([N+](=O)[O-])cc3)o2)cc1`, the AC50 was 9.28 µM. The compound also registered an AC50 (E. coli WT-GFP vs G2058-humanized RFP mixed culture, OD600 growth, 24 h, test 1) of more than 100 µM. This compound also came in with an AC50 (measured here: wild-type GFP, test 1) of 4.75 µM.

Regarding `COc1cccc(C(=O)C2CCCN(C/C=C/c3ccccc3OC)C2)c1` (configuration not stated), the AC50 was > 100 µM (inactive). The AC50 under setting [2] is more than 100 µM.

Regarding `O=C1c2cccc3cccc(c23)C(=O)N1c1ccccc1Cl`, the AC50 was > 100 µM (inactive).

In the case of `CCN(CC)S(=O)(=O)c1ccc(N2CCCC2)c(NC(=O)c2ccccc2OC)c1`, the AC50 is > 100 µM (inactive).

Consider `Cc1ccc2nc(-c3ccc(Cl)cc3)c(Cc3ccccc3C(F)(F)F)n2c1`, for which the AC50 under setting [1] is more than 100 µM.

`COc1ccc(OC)c(-c2csc(NC(=O)C3COc4ccccc4O3)n2)c1` (configuration not stated): the AC50 was > 100 µM (inactive). The compound further gave an AC50 under setting [1] of more than 100 µM.

As to `COc1ccc(NC(=O)Nc2cccc3c2O[C@H](CN(C)S(=O)(=O)c2ccc(Cl)cc2)[C@@H](C)CN([C@H](C)CO)C3=O)cc1`, the AC50 is > 100 µM (inactive).

For `CCOC(=O)c1ccc(NC(=O)COc2ccc(CNCCO)cc2OCC)cc1`, the AC50 is > 100 µM (inactive).

For `Cc1cccc(-c2ccc([C@H]3[C@H](CO)N4CCCCN(S(=O)(=O)c5ccccc5C)C[C@@H]34)cc2)c1`, the AC50 was > 100 µM (inactive). The compound further returned an AC50 under setting [1] of more than 100 µM.

Under setting [1], `O=C(CCNC(=O)c1ccco1)Nc1cccc(Br)c1` yielded an AC50 of more than 100 µM.

As for `COCCn1c(SCC(=O)Nc2ccccc2OC)nc2ccccc21`, the AC50 was > 100 µM (inactive).

Consider `CCc1ccc2nc(N(CCCN(C)C)C(=O)c3ccc4c(c3)OCCO4)sc2c1`, for which the AC50 was > 100 µM (inactive). The AC50 under setting [1] is more than 100 µM.

Turning to `O=c1[nH]c2cc([N+](=O)[O-])ccc2c2ccccc12`, the AC50 is > 100 µM (inactive). The AC50 under setting [1] is more than 100 µM. For the same compound, the AC50 under setting [2] is more than 100 µM.

For the compound `CCOc1ccc(C(C)=O)cc1CN1C(=O)NC2(CCCCCCC2)C1=O`, the AC50 was > 100 µM (inactive). This compound had an AC50 under setting [1] of more than 100 µM.

For the compound `COc1ccc(C(=O)Nc2ccc3nc(C)sc3c2)cc1OC`, the AC50 is > 100 µM (inactive).

Regarding `O=C(NCc1ccccc1Cl)c1ccc2c(c1)SC1=NS(=O)(=O)CCN12`, the AC50 was > 100 µM (inactive). Under setting [1], the AC50 was more than 100 µM.

As to `CCOC(=O)c1c(NC(=O)CN2CCC(C)CC2)sc(C)c1C`, the AC50 is > 100 µM (inactive).

Turning to `CC(C)(C)c1ccc(-c2noc(CCC(=O)NCc3ccco3)n2)cc1`, the AC50 is > 100 µM (inactive). This compound also displayed a half-maximal activity concentration (AC50) under setting [1] of more than 100 µM. This compound gave an AC50 under setting [2] of more than 100 µM.

As for `COC(=O)c1ccc(OCC(=O)c2ccccc2OC)cc1`, the AC50 is > 100 µM (inactive). Moreover, the AC50 under setting [1] was more than 100 µM.

For `CC(C)(C)c1ccc(S(=O)(=O)NCc2ccc(C(=O)NCc3ccccn3)cc2)cc1`, the AC50 was > 100 µM (inactive). The compound further gave an AC50 under setting [1] of more than 100 µM.

A word on the AC50: it is the concentration giving half of the maximal activity seen.

Source of the values: PubChem BioAssay AID1035470 (Broad Institute, 2014).
